{"source": "PubChem BioAssay (NCI)", "test_in_all_cases": "inhibition of tumour cell growth, NCI panel, 48 h", "key": {"[1]": {"test_system": "786-0 renal"}, "[2]": {"test_system": "A498 renal"}, "[3]": {"test_system": "A549 NSCLC"}, "[4]": {"test_system": "ACHN renal"}, "[5]": {"test_system": "BT-549 breast"}, "[6]": {"test_system": "CAKI-1 renal"}, "[7]": {"test_system": "CCRF-CEM leukemia"}, "[8]": {"test_system": "COLO 205 colon"}, "[9]": {"test_system": "DU-145 prostate"}, "[10]": {"test_system": "EKVX NSCLC"}, "[11]": {"test_system": "HCC-2998 colon"}, "[12]": {"test_system": "HCT-116 colon"}, "[13]": {"test_system": "HCT-15 colon"}, "[14]": {"test_system": "HL-60(TB) leukemia"}, "[15]": {"test_system": "HOP-62 NSCLC"}, "[16]": {"test_system": "HOP-92 NSCLC"}, "[17]": {"test_system": "HS 578T breast"}, "[18]": {"test_system": "HT29 colon"}, "[19]": {"test_system": "IGROV1 ovarian"}, "[20]": {"test_system": "K-562 leukemia"}, "[21]": {"test_system": "KM12 colon"}, "[22]": {"test_system": "LOX IMVI melanoma"}, "[23]": {"test_system": "M14 melanoma"}, "[24]": {"test_system": "MALME-3M melanoma"}, "[25]": {"test_system": "MCF7 breast"}, "[26]": {"test_system": "MDA-MB-231 breast"}, "[27]": {"test_system": "MDA-MB-435"}, "[28]": {"test_system": "MDA-MB-468 breast"}, "[29]": {"test_system": "MOLT-4 leukemia"}, "[30]": {"test_system": "NCI-H226 lung"}}, "note": "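Five compound concentrations were applied to cells in 96-well plates for 48 hours; endpoints were derived by simple linear interpolation of the resulting dose-response curve. Abbreviation: GI50, concentration required for 50% inhibition of growth. Definition used: TGI = concentration required for complete inhibition of growth.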", "data": [{"compound": "OCCCNc1oc(-c2ccccc2)nc1[P+](c1ccccc1)(c1ccccc1)c1ccccc1", "values": [{"measurement": "GI50", "setting": "[1]", "value": 5.72, "unit": "µM"}, {"measurement": "TGI", "setting": "[1]", "value": 20, "unit": "µM"}, {"measurement": "GI50", "setting": "[2]", "value": 10.4, "unit": "µM"}, {"measurement": "TGI", "setting": "[2]", "value": 23, "unit": "µM"}, {"measurement": "GI50", "setting": "[3]", "value": 5.68, "unit": "µM"}, {"measurement": "TGI", "setting": "[3]", "value": 20.3, "unit": "µM"}, {"measurement": "GI50", "setting": "[4]", "value": 10.2, "unit": "µM"}, {"measurement": "TGI", "setting": "[4]", "value": 24.8, "unit": "µM"}, {"measurement": "GI50", "setting": "[5]", "value": 1.87, "unit": "µM"}, {"measurement": "TGI", "setting": "[5]", "value": 6.03, "unit": "µM"}, {"measurement": "GI50", "setting": "[6]", "value": 4.28, "unit": "µM"}, {"measurement": "TGI", "setting": "[6]", "value": 21.7, "unit": "µM"}, {"measurement": "GI50", "setting": "[7]", "value": 2.46, "unit": "µM"}, {"measurement": "TGI", "setting": "[7]", "value": 13.5, "unit": "µM"}, {"measurement": "GI50", "setting": "[8]", "value": 1.26, "unit": "µM"}, {"measurement": "TGI", "setting": "[8]", "value": 4.41, "unit": "µM"}, {"measurement": "GI50", "setting": "[9]", "value": 3.86, "unit": "µM"}, {"measurement": "TGI", "setting": "[9]", "value": 16.4, "unit": "µM"}, {"measurement": "GI50", "setting": "[10]", "value": 2.81, "unit": "µM"}, {"measurement": "TGI", "setting": "[10]", "value": 13.6, "unit": "µM"}, {"measurement": "GI50", "setting": "[11]", "value": 2.95, "unit": "µM"}, {"measurement": "TGI", "setting": "[11]", "value": 12.8, "unit": "µM"}, {"measurement": "GI50", "setting": "[12]", "value": 2.52, "unit": "µM"}, {"measurement": "TGI", "setting": "[12]", "value": 15.9, "unit": "µM"}, {"measurement": "GI50", "setting": "[13]", "value": 13.7, "unit": "µM"}, {"measurement": "TGI", "setting": "[13]", "value": 28.1, "unit": "µM"}, {"measurement": "GI50", "setting": "[14]", "value": 0.586, "unit": "µM"}, {"measurement": "TGI", "setting": "[14]", "value": 2.9, "unit": "µM"}, {"measurement": "GI50", "setting": "[15]", "value": 3.25, "unit": "µM"}, {"measurement": "TGI", "setting": "[15]", "value": 14.5, "unit": "µM"}, {"measurement": "GI50", "setting": "[16]", "value": 1.24, "unit": "µM"}, {"measurement": "TGI", "setting": "[16]", "value": 5.68, "unit": "µM"}, {"measurement": "GI50", "setting": "[17]", "value": 2.25, "unit": "µM"}, {"measurement": "TGI", "setting": "[17]", "value": 8.21, "unit": "µM"}, {"measurement": "GI50", "setting": "[18]", "value": 2.45, "unit": "µM"}, {"measurement": "TGI", "setting": "[18]", "value": 13.3, "unit": "µM"}, {"measurement": "GI50", "setting": "[19]", "value": 2.14, "unit": "µM"}, {"measurement": "TGI", "setting": "[19]", "value": 7.01, "unit": "µM"}, {"measurement": "GI50", "setting": "[20]", "value": 1.46, "unit": "µM"}, {"measurement": "TGI", "setting": "[20]", "value": 11.7, "unit": "µM"}, {"measurement": "GI50", "setting": "[21]", "value": 2.13, "unit": "µM"}, {"measurement": "TGI", "setting": "[21]", "value": 7.15, "unit": "µM"}, {"measurement": "GI50", "setting": "[22]", "value": 3.12, "unit": "µM"}, {"measurement": "TGI", "setting": "[22]", "value": 12.2, "unit": "µM"}, {"measurement": "GI50", "setting": "[23]", "value": 3.13, "unit": "µM"}, {"measurement": "TGI", "setting": "[23]", "value": 17.7, "unit": "µM"}, {"measurement": "GI50", "setting": "[24]", "value": 1.57, "unit": "µM"}, {"measurement": "TGI", "setting": "[24]", "value": 5.38, "unit": "µM"}, {"measurement": "GI50", "setting": "[25]", "value": 1.95, "unit": "µM"}, {"measurement": "TGI", "setting": "[25]", "value": 8.73, "unit": "µM"}, {"measurement": "GI50", "setting": "[26]", "value": 1.72, "unit": "µM"}, {"measurement": "TGI", "setting": "[26]", "value": 4.84, "unit": "µM"}, {"measurement": "GI50", "setting": "[27]", "value": 2.26, "unit": "µM"}, {"measurement": "TGI", "setting": "[27]", "value": 10, "unit": "µM"}, {"measurement": "GI50", "setting": "[28]", "value": 0.337, "unit": "µM"}, {"measurement": "TGI", "setting": "[28]", "value": 1.97, "unit": "µM"}, {"measurement": "GI50", "setting": "[29]", "value": 3.01, "unit": "µM"}, {"measurement": "TGI", "setting": "[29]", "value": 12.1, "unit": "µM"}, {"measurement": "GI50", "setting": "[30]", "value": 2.44, "unit": "µM"}]}]}
